The first assay relates to NCI-H1944. Briefly: relative viability (nuclei count vs DMSO), 5 days (fraction); higher = more cells survive. The note with it: first compound 6.325 µM. The gist of the method: (§1)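 Nuclei were stained with Hoechst during a one-step fixation (final 0.05% Triton X-100, 1% formaldehyde, 1 ug/ml Hoechst) carried out 5 days after dosing, then counted on 4× images. The cells, lung cancer lines in 1536-well plates, had been dosed by pin tool the day after seeding with one drug alone or a fixed anchor-drug dose plus five library-drug doses (not always all listed) in √10 steps. Relative viability is the nuclei count in treated wells divided by that in vehicle wells, and each value is the median of duplicate plates.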
In turn, `COCC1(CO)C(=O)C2CCN1CC2` (stereo unspecified) [PRIMA-1MET] + Cc1nc(NC(=O)N2CCC[C@H]2C(N)=O)sc1-c1ccnc(C(C)(C)C(F)(F)F)c1 [Alpelisib] (partner 2 µM) returned a relative viability of 0.849.

Still in this assay, the particulars now being: first compound 20 µM.
Molecule `COCC1(CO)C(=O)C2CCN1CC2` (stereo unspecified) [PRIMA-1MET] + CS(=O)(=O)N1CCN(Cc2cc3nc(-c4cccc5[nH]ncc45)nc(N4CCOCC4)c3s2)CC1 [Pictilisib] (partner 1 µM) displayed a relative viability of 0.363.

The molecule `COCC1(CO)C(=O)C2CCN1CC2` (stereo unspecified) [PRIMA-1MET] + CS(=O)(=O)CCNCc1ccc(-c2ccc3ncnc(Nc4ccc(OCc5cccc(F)c5)c(Cl)c4)c3c2)o1 [Lapatinib] (partner 2 µM) came in with a relative viability of 0.823.

Molecule `COCC1(CO)C(=O)C2CCN1CC2` (stereo unspecified) [PRIMA-1MET] + C[C@]1(O)C[C@@H](c2nc(-c3ccc4ccc(-c5ccccc5)nc4c3)c3c(N)nccn32)C1 [Linsitinib] (partner 1 µM) yielded a relative viability of 1.17.

Regarding `COCC1(CO)C(=O)C2CCN1CC2` (stereo unspecified) [PRIMA-1MET] + COc1cc2c(Oc3ccc(NC(=O)C4(C(=O)Nc5ccc(F)cc5)CC4)cc3F)ccnc2cc1OCCCN1CCOCC1 [Foretinib] (partner 0.25 µM), the relative viability was determined as 0.861.

Take `COCC1(CO)C(=O)C2CCN1CC2` (stereo unspecified) [PRIMA-1MET] + Cc1nc(NC(=O)N2CCC[C@H]2C(N)=O)sc1-c1ccnc(C(C)(C)C(F)(F)F)c1 [Alpelisib] (partner 2 µM): the relative viability is 0.823.

Another assay relates to NCI-H1975. The assay is described as above. The note with it: first compound 0.2 µM. The method, boiled down: as §1
`COCC1(CO)C(=O)C2CCN1CC2` (stereo unspecified) [PRIMA-1MET] + CS(=O)(=O)N1CCN(Cc2cc3nc(-c4cccc5[nH]ncc45)nc(N4CCOCC4)c3s2)CC1 [Pictilisib] (partner 1 µM) showed a relative viability of 0.294.

Turning to `COCC1(CO)C(=O)C2CCN1CC2` (stereo unspecified) [PRIMA-1MET] + CS(=O)(=O)CCNCc1ccc(-c2ccc3ncnc(Nc4ccc(OCc5cccc(F)c5)c(Cl)c4)c3c2)o1 [Lapatinib] (partner 2 µM), the relative viability was determined as 0.988.

For `COCC1(CO)C(=O)C2CCN1CC2` (stereo unspecified) [PRIMA-1MET] + C[C@]1(O)C[C@@H](c2nc(-c3ccc4ccc(-c5ccccc5)nc4c3)c3c(N)nccn32)C1 [Linsitinib] (partner 1 µM), the relative viability is 1.14.

On to `COCC1(CO)C(=O)C2CCN1CC2` (stereo unspecified) [PRIMA-1MET] + COc1cc2c(Oc3ccc(NC(=O)C4(C(=O)Nc5ccc(F)cc5)CC4)cc3F)ccnc2cc1OCCCN1CCOCC1 [Foretinib] (partner 0.25 µM), for which the relative viability was determined as 1.07.

Take `COCC1(CO)C(=O)C2CCN1CC2` (stereo unspecified) [PRIMA-1MET] + Cc1nc(NC(=O)N2CCC[C@H]2C(N)=O)sc1-c1ccnc(C(C)(C)C(F)(F)F)c1 [Alpelisib] (partner 2 µM): the relative viability worked out at 0.822.

Staying with this assay, now noted: first compound 0.6325 µM.
`COCC1(CO)C(=O)C2CCN1CC2` (stereo unspecified) [PRIMA-1MET] + CS(=O)(=O)N1CCN(Cc2cc3nc(-c4cccc5[nH]ncc45)nc(N4CCOCC4)c3s2)CC1 [Pictilisib] (partner 1 µM) yielded a relative viability of 0.291.

In the case of `COCC1(CO)C(=O)C2CCN1CC2` (stereo unspecified) [PRIMA-1MET] + CS(=O)(=O)CCNCc1ccc(-c2ccc3ncnc(Nc4ccc(OCc5cccc(F)c5)c(Cl)c4)c3c2)o1 [Lapatinib] (partner 2 µM), the relative viability was 0.786.

`COCC1(CO)C(=O)C2CCN1CC2` (stereo unspecified) [PRIMA-1MET] + C[C@]1(O)C[C@@H](c2nc(-c3ccc4ccc(-c5ccccc5)nc4c3)c3c(N)nccn32)C1 [Linsitinib] (partner 1 µM): the relative viability was found to be 0.838.

Molecule `COCC1(CO)C(=O)C2CCN1CC2` (stereo unspecified) [PRIMA-1MET] + COc1cc2c(Oc3ccc(NC(=O)C4(C(=O)Nc5ccc(F)cc5)CC4)cc3F)ccnc2cc1OCCCN1CCOCC1 [Foretinib] (partner 0.25 µM) displayed a relative viability of 0.958.

`COCC1(CO)C(=O)C2CCN1CC2` (stereo unspecified) [PRIMA-1MET] + Cc1nc(NC(=O)N2CCC[C@H]2C(N)=O)sc1-c1ccnc(C(C)(C)C(F)(F)F)c1 [Alpelisib] (partner 2 µM): the relative viability is 0.603.

Still in this assay, the particulars now being: first compound 2 µM.
As to `COCC1(CO)C(=O)C2CCN1CC2` (stereo unspecified) [PRIMA-1MET] + CS(=O)(=O)N1CCN(Cc2cc3nc(-c4cccc5[nH]ncc45)nc(N4CCOCC4)c3s2)CC1 [Pictilisib] (partner 1 µM), the relative viability came to 0.27.

`COCC1(CO)C(=O)C2CCN1CC2` (stereo unspecified) [PRIMA-1MET] + CS(=O)(=O)CCNCc1ccc(-c2ccc3ncnc(Nc4ccc(OCc5cccc(F)c5)c(Cl)c4)c3c2)o1 [Lapatinib] (partner 2 µM): the relative viability was 0.774.

The molecule `COCC1(CO)C(=O)C2CCN1CC2` (stereo unspecified) [PRIMA-1MET] + C[C@]1(O)C[C@@H](c2nc(-c3ccc4ccc(-c5ccccc5)nc4c3)c3c(N)nccn32)C1 [Linsitinib] (partner 1 µM) had a relative viability of 0.875.

In turn, `COCC1(CO)C(=O)C2CCN1CC2` (stereo unspecified) [PRIMA-1MET] + COc1cc2c(Oc3ccc(NC(=O)C4(C(=O)Nc5ccc(F)cc5)CC4)cc3F)ccnc2cc1OCCCN1CCOCC1 [Foretinib] (partner 0.25 µM) gave a relative viability of 0.916.

`COCC1(CO)C(=O)C2CCN1CC2` (stereo unspecified) [PRIMA-1MET] + Cc1nc(NC(=O)N2CCC[C@H]2C(N)=O)sc1-c1ccnc(C(C)(C)C(F)(F)F)c1 [Alpelisib] (partner 2 µM) displayed a relative viability of 0.694.

Staying with this assay, now noted: first compound 6.325 µM.
`COCC1(CO)C(=O)C2CCN1CC2` (stereo unspecified) [PRIMA-1MET] + CS(=O)(=O)N1CCN(Cc2cc3nc(-c4cccc5[nH]ncc45)nc(N4CCOCC4)c3s2)CC1 [Pictilisib] (partner 1 µM) came in with a relative viability of 0.311.

`COCC1(CO)C(=O)C2CCN1CC2` (stereo unspecified) [PRIMA-1MET] + CS(=O)(=O)CCNCc1ccc(-c2ccc3ncnc(Nc4ccc(OCc5cccc(F)c5)c(Cl)c4)c3c2)o1 [Lapatinib] (partner 2 µM): the relative viability is 0.947.

Take `COCC1(CO)C(=O)C2CCN1CC2` (stereo unspecified) [PRIMA-1MET] + C[C@]1(O)C[C@@H](c2nc(-c3ccc4ccc(-c5ccccc5)nc4c3)c3c(N)nccn32)C1 [Linsitinib] (partner 1 µM): the relative viability was determined as 1.

Molecule `COCC1(CO)C(=O)C2CCN1CC2` (stereo unspecified) [PRIMA-1MET] + COc1cc2c(Oc3ccc(NC(=O)C4(C(=O)Nc5ccc(F)cc5)CC4)cc3F)ccnc2cc1OCCCN1CCOCC1 [Foretinib] (partner 0.25 µM) came in with a relative viability of 1.01.

`COCC1(CO)C(=O)C2CCN1CC2` (stereo unspecified) [PRIMA-1MET] + Cc1nc(NC(=O)N2CCC[C@H]2C(N)=O)sc1-c1ccnc(C(C)(C)C(F)(F)F)c1 [Alpelisib] (partner 2 µM): the relative viability came out at 0.68.

The same assay, now with this note: first compound 20 µM.
`COCC1(CO)C(=O)C2CCN1CC2` (stereo unspecified) [PRIMA-1MET] + CS(=O)(=O)N1CCN(Cc2cc3nc(-c4cccc5[nH]ncc45)nc(N4CCOCC4)c3s2)CC1 [Pictilisib] (partner 1 µM) returned a relative viability of 0.248.

Consider `COCC1(CO)C(=O)C2CCN1CC2` (stereo unspecified) [PRIMA-1MET] + CS(=O)(=O)CCNCc1ccc(-c2ccc3ncnc(Nc4ccc(OCc5cccc(F)c5)c(Cl)c4)c3c2)o1 [Lapatinib] (partner 2 µM), for which the relative viability was 0.816.

On to `COCC1(CO)C(=O)C2CCN1CC2` (stereo unspecified) [PRIMA-1MET] + C[C@]1(O)C[C@@H](c2nc(-c3ccc4ccc(-c5ccccc5)nc4c3)c3c(N)nccn32)C1 [Linsitinib] (partner 1 µM), for which the relative viability stood at 0.826.

The molecule `COCC1(CO)C(=O)C2CCN1CC2` (stereo unspecified) [PRIMA-1MET] + COc1cc2c(Oc3ccc(NC(=O)C4(C(=O)Nc5ccc(F)cc5)CC4)cc3F)ccnc2cc1OCCCN1CCOCC1 [Foretinib] (partner 0.25 µM) yielded a relative viability of 0.626.

Molecule `COCC1(CO)C(=O)C2CCN1CC2` (stereo unspecified) [PRIMA-1MET] + Cc1nc(NC(=O)N2CCC[C@H]2C(N)=O)sc1-c1ccnc(C(C)(C)C(F)(F)F)c1 [Alpelisib] (partner 2 µM) returned a relative viability of 0.574.

Source of the values: the supplement of paper PMC10307832.
